Reference: patent publication US8017611B2, “Pyridine and pyrazine derivatives -083” (AstraZeneca AB, priority 2007, dated 2011)
Read-outs that look alike come from different tables or passages of the source. Marks after values point to notes of the source that are not given here.

Molecular target: T1, recombinant Axl tyrosine kinase (Homo sapiens, UniProt P30530)
T1 construct: encompassing amino acids 473 to 894 of Axl; GST (N); made in house; host or cells: SF126 insect cells
T1 sequence (P30530 473-894): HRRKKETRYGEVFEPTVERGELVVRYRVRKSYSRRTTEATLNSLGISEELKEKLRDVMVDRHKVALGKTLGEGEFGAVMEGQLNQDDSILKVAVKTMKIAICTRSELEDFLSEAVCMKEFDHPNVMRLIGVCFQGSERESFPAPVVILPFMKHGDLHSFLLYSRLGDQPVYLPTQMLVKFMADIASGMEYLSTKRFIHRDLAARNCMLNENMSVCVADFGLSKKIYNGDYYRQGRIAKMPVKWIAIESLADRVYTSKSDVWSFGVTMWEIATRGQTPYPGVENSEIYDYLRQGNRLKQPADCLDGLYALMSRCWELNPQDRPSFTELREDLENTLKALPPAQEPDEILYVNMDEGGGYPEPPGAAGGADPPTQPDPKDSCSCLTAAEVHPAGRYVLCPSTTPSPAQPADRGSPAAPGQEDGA
Assay: In vitro Axl kinase assay (AlphaScreen), Test (a)
Assay type: biochemical
Method: Test compounds were prepared as 10 mM stock solutions in dimethylsulphoxide (DMSO) and diluted in DMSO as required. Aliquots (120 nl) of compound dilutions were filled into the wells of a Greiner 384-well low volume (LV) white polystyrene plate (Greiner Bio-one) using acoustic dispensing (Labcyte Echo 550). A 10 μl mixture of recombinant purified Axl enzyme, biotinylated peptide substrate (Biotin poly-GAT; CisBio, Catalogue No. 61GATBLB), 0.2 μM adenosine triphosphate (ATP) and a buffer solution [comprising 20 mM Tris-HCl pH 7.5 buffer, 0.01% v/v Tween, 5 mM dithiothreitol (DTT) and 10 mM manganese chloride] was incubated with the compounds at room temperature for 20 minutes.
Control wells that produced a minimum signal corresponding to 100% inhibited enzyme were created by adding 10 μM of Staurosporine.
The percentage kinase inhibition value is the percentage of Axl tyrosine kinase activity inhibited by the test compound at a concentration of 1 μM.

[1] = test compound at 1 μM, first value quoted
[2] = test compound at 1 μM, first value quoted, read-out: % Axl tyrosine kinase inhibition at 1 μM concentration

| Structure (SMILES) | % Axl tyrosine kinase inhibition at 1 μM concentration [1] | also measured |
| --- | --- | --- |
| CCN(CC)CCNC(=O)c1cccc(-c2cnc(N)c(-c3nc4cccnc4o3)c2)c1 [Example 9A.7] | 91.7% | – |
| CC(C)N1CCC(n2cc(-c3cnc(N)c(-c4nc5ccccc5o4)c3)cn2)CC1 [Example 5, 3-(1,3-Benzoxazol-2-yl)-5-[1-(1-isopropyl-4-piperidyl)pyrazol-4-yl]pyridin-2-amine] | – | inhibition at 1 µM [2]: 100% |
| Nc1ncc(-c2ccc(OCCN3CCCC3)cc2)cc1-c1nc2cccnc2o1 [Example 43A.3] | 98.7% | – |
| CCN1CCC(n2cc(-c3cnc(N)c(-c4nc5ncccc5o4)c3)cn2)CC1 [Example 52, 5-[1-(1-ethyl-4-piperidyl)pyrazol-4-yl]-3-oxazolo[4,5-b]pyridin-2-yl-pyridin-2-amine] | – | inhibition at 1 µM [2]: 99.8% |
| Nc1ncc(-c2ccc(C(=O)N3CCC(O)CC3)cc2)cc1-c1nc2ccncc2o1 [Example 11A.2] | 97.5% | – |
| CN1CCN(C(=O)c2ccc(-c3cnc(N)c(-c4nc5cccnc5o4)c3)cc2)CC1 [Example 45A.49] | 96.1% | – |
| Nc1ncc(-c2ccc(C(=O)N3CCCCC3CN3CCCC3)cc2)cc1-c1nc2cccnc2o1 (stereo not shown) [Example 45A.23] | 99.8% | – |
| COc1cc(-c2cnc(N)c(-c3nc4ncccc4o3)c2)ccc1OC1CCCNCC1 (stereo not shown) [Example 43C.38] | 99.8% | – |
| Nc1ncc(-c2ccc(CO)s2)cc1-c1nc2cnccc2o1 [Example 8A.5] | 96.8% | – |
| CN1CCC(Oc2ccc(-c3cnc(N)c(-c4nc5ncccc5o4)c3)cc2)C1 (stereo not shown) [Example 43B.4] | 99.3% | – |
| NCc1cccc(-c2cnc(N)c(-c3nc4cnccc4o3)c2)c1 [Example 8A.27] | 98.6% | – |
| CC(C)(C)OC(=O)N1CCC(n2cc(-c3cnc(N)c(-c4nc5ccccc5o4)n3)cn2)CC1 [Example 15, Tert-butyl 4-[4-[5-amino-6-(1,3-benzoxazol-2-yl)pyrazin-2-yl]pyrazol-1-yl]piperidine-1-carboxylate] | – | inhibition at 1 µM (1 μM, mean calculated from a larger number of replicates than the first value, read-out: % Axl tyrosine kinase inhibition at 1 μM concentration (second value, †)): 99.4%; inhibition at 1 µM [2]: 93.1% |
| CN1CCC(NC(=O)c2ccc(-c3cnc(N)c(-c4nc5cccnc5o4)c3)cc2)C2CCCCC21 (stereo not shown) [Example 45A.44] | 99.3% | – |
| Nc1ncc(-c2cccc(CC(=O)O)c2)nc1-c1nc2ccc(F)cc2o1 [Example 50, 2-[3-[5-amino-6-(6-fluoro-1,3-benzoxazol-2-yl)pyrazin-2-yl]phenyl]acetic acid] | – | inhibition at 1 µM [2]: 47.6% |
| Nc1ncc(-c2ccc(C(=O)NCCN3CCS(=O)(=O)CC3)cc2)cc1-c1nc2cccnc2o1 [Example 45A.12] | 96.3% | – |
| COc1cc(-c2cnc(N)c(-c3nc4ncccc4o3)c2)ccc1OCC1CCCN(C)C1 (stereo not shown) [Example 43C.12] | 99.6% | – |
| CN(C)CCN(C)C(=O)c1ccc(-c2cnc(N)c(-c3nc4cccnc4o3)c2)cc1 [Example 45A.48] | 98.3% | – |
| CCNS(=O)(=O)c1cccc(-c2cnc(N)c(-c3nc4ccccc4o3)c2)c1 [Example 48, 3-[6-Amino-5-(1,3-benzoxazol-2-yl)-3-pyridyl]-N-ethyl-benzenesulphonamide] | – | inhibition at 1 µM [2]: 93.5% |
| NCCOc1ccc(-c2cnc(N)c(-c3nc4ncccc4o3)c2)cc1 [Example 43B.25] | 97.5% | – |
| NCCCOc1ccc(-c2cnc(N)c(-c3nc4ncccc4o3)c2)cc1 [Example 43B.31] | 97.1% | – |
| Nc1ncc(-c2cnn(C3CCNCC3)c2)nc1-c1nc2ccccc2o1 [Example 17, 3-(1,3-Benzoxazol-2-yl)-5-[1-(4-piperidyl)pyrazol-4-yl]pyrazin-2-amine] | – | inhibition at 1 µM [2]: 99.6% |
| Nc1ncc(-c2cccc(S(=O)(=O)NC3CC3)c2)cc1-c1nc2ncccc2o1 [Example 10A.10] | 90.0% | – |
| Nc1ncc(-c2ccc(OCCOC3CNC3)cc2)cc1-c1nc2ncccc2o1 [Example 43B.39] | 98.2% | – |
| CN1CCN(CCCNC(=O)c2ccc(-c3cnc(N)c(-c4nc5cccnc5o4)c3)cc2)CC1 [Example 45A.58] | 97.0% | – |
| CC1CCN(CCCNC(=O)c2ccc(-c3cnc(N)c(-c4nc5cccnc5o4)c3)cc2)CC1 [Example 45A.46] | 99.1% | – |
| CN1CCN(CCNC(=O)c2ccc(-c3cnc(N)c(-c4nc5cccnc5o4)c3)cc2)CC1 [Example 45A.73] | 96.0% | – |
| Nc1ncc(-c2ccc(C(=O)N[C@H]3CN4CCC3CC4)cc2)cc1-c1nc2cccnc2o1 [Example 45A.35] | 98.4% | – |
| Nc1ncc(-c2cnn(C3CCNCC3)c2)cc1-c1nc2cccnc2o1 [Example 9, 3-Oxazolo[5,4-b]pyridin-2-yl-5-[1-(4-piperidyl)pyrazol-4-yl]pyridin-2-amine] | – | inhibition at 1 µM [2]: 98.8% |
| CN1CCCC1CCNC(=O)c1ccc(-c2cnc(N)c(-c3nc4cccnc4o3)c2)cc1 (stereo not shown) [Example 45A.5] | 98.8% | – |

Continued, in another order:

| % Axl tyrosine kinase inhibition at 1 μM concentration [1] | Structure (SMILES) | also measured |
| --- | --- | --- |
| 93.3% | Nc1ncc(-c2cccc(CO)c2)cc1-c1nc2ccccc2o1 [Example 2.35] | – |
| 100.0% | COCc1nn(C2CCNCC2)cc1-c1cnc(N)c(-c2nc3cccc(OC)c3o2)c1 [Example 62.14] | IC50 (Test (a), read-out: IC50 versus Axl tyrosine kinase): ~100 pM |
| 100.0% | C[C@H](O)C(=O)N1CCC(n2cc(-c3cnc(N)c(-c4nc5ccccc5o4)c3)c(CO)n2)CC1 [Example 67.2] | – |
| 98.1% | CO[C@H](C)C(=O)N1CCC(n2cc(-c3cnc(N)c(-c4nc5ncccc5o4)c3)cn2)CC1 [Example 59.2] | – |
| 99.9% | CN(C)CCNC(=O)c1ccc(-c2cnc(N)c(-c3nc4ccccc4o3)c2)cc1 [Example 2.41] | – |
| 100.0% | CN1CCN(CCCn2cc(-c3cnc(N)c(-c4nc5ccccc5o4)c3)cn2)CC1 [Example 31.5] | – |
| 94.0% | Nc1ncc(-c2ccc(CO)cc2)cc1-c1nc2ccccc2o1 [Example 2.16] | – |
| 96.9% | CN(C)c1cccc(-c2cnc(N)c(-c3nc4ccccc4o3)n2)c1 [Example 20.15] | – |
| 93.7% | CCS(=O)(=O)c1ccc(-c2cnc(N)c(-c3nc4ccccc4o3)c2)cc1 [Example 2.1] | – |
| 98.0% | N#CCc1cccc(-c2cnc(N)c(-c3nc4ccccc4o3)c2)c1 [Example 2.47] | – |
| 100.0% | COc1cccc2nc(-c3cc(-c4cnn(C5CCNCC5)c4)cnc3N)oc12 [Example 38.5] | – |
| 98.5% | COCc1ccccc1-c1cnc(N)c(-c2nc3ccccc3o2)c1 [Example 2.36] | – |
| 100.0% | COCc1nn(C2CCN(C)CC2)cc1-c1cnc(N)c(-c2nc3c(F)cccc3o2)c1 [Example 41.34] | – |
| 91.9% | COCc1ccc(-c2cnc(N)c(-c3nc4ccccc4o3)c2)cc1 [Example 2.37] | – |
| 99.8% | COc1cc(-c2cnc(N)c(-c3nc4ncccc4o3)c2)ccc1N1CCNCC1 [Example 25.8] | – |
| 99.5% | Nc1ncc(-c2cnn(C3CCNCC3)c2)cc1-c1nc2ccc(F)c(F)c2o1 [Example 38.1] | – |
| 99.7% | NCc1ccc(-c2cnc(N)c(-c3nc4ccccc4o3)c2)cc1 [Example 2.13] | – |
| 60.3% | Nc1ncc(-c2ccnc3ccccc23)cc1-c1nc2ccccc2o1 [Example 2.25] | – |
| 99.5% | NC(=O)c1nn(C2CCNCC2)cc1-c1cnc(N)c(-c2nc3ccccc3o2)c1 [Example 62.5] | – |
| 99.8% | CN1CCC(n2cc(-c3cnc(N)c(-c4nc5cnccc5o4)c3)cn2)CC1 [Example 41.1] | – |
| 15.8** % | Nc1ncc(-c2ccc3c(c2)OCO3)cc1-c1nc2ccccc2o1 [Example 2.42] | % of Axl tyrosine kinase activity inhibited at a concentration of 30 μM (test compound at 30 μM): **the compound disclosed in Example 2.42 inhibited 53.6% of Axl tyrosine kinase activity at a concentration of 30 μM. |
| 99.1% | CN1CCC(n2cc(-c3cnc(N)c(-c4nc5cc(Br)ccc5o4)c3)cn2)CC1 [Example 7.5] | – |
| 99.3% | CN1CCCC(n2cc(-c3cnc(N)c(-c4nc5ccccc5o4)c3)cn2)C1 (stereo not shown) [Example 41.2] | – |
